In general, Ki refers to a dissociation constant, usually derived from enzyme kinetics or from competition with a known ligand. A lower Ki goes with higher affinity. One may read the Dmax as the greatest extent of degradation seen. Read a low Dmax as shallow degradation.

This is an account of results in patent publication US20240317706A1, “COMPOUNDS THAT MEDIATE PROTEIN DEGRADATION AND METHODS OF USE THEREOF” (Monte Rosa Therapeutics, Inc., priority 2021, published 2024).

A value given as a limit tells only on which side of the number the result lay.

The target in one test is CRBN-DDB1 (Homo sapiens, UniProt Q96SW2). The experiment in a line: Compound binding to CRBN by HTRF assay. The following applies: CRBN-DDB1 2.5 nM, Cy5-Thalidomide 100 nM, 30 min; Ki from geometric mean IC50 by Cheng-Prustoff transformation. Here is the method:
Compound activity was monitored in a Homogenous Time-Resolved Fluorescence (HTRF) assay using 1-[5-({2-[2-(2-{[2-(2,6-dioxopiperidin-3-yl)-1,3-dioxo-2,3-dihydro-1H-isoindol-4-yl]oxy}acetamido)ethoxy]ethyl}carbamoyl)pentyl]-3,3-dimethyl-2-[(1E,3E)-5-[(2E)-1,3,3-trimethyl-5-sulfo-2,3-dihydro-1H-indol-2-ylidene]penta-1,3-dien-1-yl]-3H-indol-1-ium-5-sulfonate as a fluorescent probe. Biochemical assays were conducted in Greiner white 384 well HiBase plates (Cat. No 784075-25) in 10 μL total volume. A one pot detection solution of CRBN-DDB1 (2.5 nM), Anti-His Terbium Cryptate Gold (1×, PerkinElmer Cat. #: 61HI2TLB), and Cy5-Thalidomide (100 nM, Tenova Cat.: T52461) was prepared in 20 mM HEPES, 20 mM NaCl, 0.2 mM TCEP, 0.2 mM EDTA, and 0.005% Tween20 was dispensed to each assay plate. Compounds were stored in dry, ambient temperatures at 10 mM. A 10-point, 1:3 dilution series was prepared from 10 mM stock concentrations in Echo-compatible LDV plates. 10 nL of each compound dilution series was dispensed into assays wells using an Echo 650 (Labcyte inc. USA). 10 nL of 10 mM Lenalidomide was transferred into the active-control wells for the assay and 10 nL of DMSO was transferred into the neutral-control wells. The assay was then allowed to incubate for 30 min at ambient temperature after transferring compound. Plate measurements were taken on a Pherastar FSX (BMG Labtech, Germany) using the HTRF Red filter (Ex. 337 nm, em1: 620 nm, em2: 665 nm) (Flashes: 50, Integration time: 60-400 us, Z-height: 10 mm, Ratio-multiplier: 10,000). The HTRF signal was then subsequently normalized to the neutral and active controls. Analysis and IC50 values were derived using KNIME analytics (KNIME Zurich) transformation and fitting within Collaborative Drug Discovery (Collaborative Drug Discovery USA). Ki was derived from the geometric mean of the IC50 values using the Cheng-Prustoff transformation.
A general note: In TR-FRET formats the signal depends on donor and acceptor labels being close together.

For a further test, the target named is T1, CDK2 (Homo sapiens, UniProt P24941).
T1 construct: HEK293 clonal lines with CRISPR KI HiBiT tag on CDK2 proteins; host or cells: HEK293 clonal line, CRISPR knock-in HiBiT-CDK2, stably expressing LgBiT
The experiment in a line: NanoBiT assay (CDK2 degradation). In kind it is cell-based. As to conditions: 24 hours; for Dmax: HEK293, HEK293 clonal line with CRISPR KI HiBiT tag on CDK2, Endurazine live cell substrate. Here is the method: HEK293 clonal lines with CRISPR KI HiBiT tag on either CDK2 proteins and stably expressing LgBiT protein were obtained from Promega (Madison, WI). Cells were plated at 5000 cells per well using Multiflo (BioTek) in 384-well white solid bottom plates (Corning, 3570BC) in 25 ul volume in DMEM media (DMEM, high glucose, HEPES, no phenol red (ThermoFisher Scientific, 21063029)) containing 10% FBS (Corning, 35-075-CV), 1% Penicillin/Streptomycin ((ThermoFisher Scientific, 15140-122), and 1% Endurazine (Nano-Glo Endurazine Live Cell Substrate (Promega, N2571)). Cells were incubated for 16 hours at 37 C, 5% CO2. 75 nL of a compound at 30 μM were dosed into the plate using an Echo® 650 liquid handler (Labcyte). Cells were incubated at 37° C., 5% CO2 for 24 hours and then signal was read on a Pherastar FSX using “LUM plus” optic module.
Analysis was performed in Scinamic (Scinamic, Cambridge, MA). Luminescence response (R) was calculated by the formula: response=100*(S−N)/(P−N) where S is the signal of the well, N and P the mean negative and positive control values respectively of the same plate. The luminescence response was then fitted in Scinamic using a 3-parameter agonist logistic fit (hillslope=1, EC50>0, top/bottom unconstrained).

Chain of CRBN-DDB1 (Q96SW2 whole entry): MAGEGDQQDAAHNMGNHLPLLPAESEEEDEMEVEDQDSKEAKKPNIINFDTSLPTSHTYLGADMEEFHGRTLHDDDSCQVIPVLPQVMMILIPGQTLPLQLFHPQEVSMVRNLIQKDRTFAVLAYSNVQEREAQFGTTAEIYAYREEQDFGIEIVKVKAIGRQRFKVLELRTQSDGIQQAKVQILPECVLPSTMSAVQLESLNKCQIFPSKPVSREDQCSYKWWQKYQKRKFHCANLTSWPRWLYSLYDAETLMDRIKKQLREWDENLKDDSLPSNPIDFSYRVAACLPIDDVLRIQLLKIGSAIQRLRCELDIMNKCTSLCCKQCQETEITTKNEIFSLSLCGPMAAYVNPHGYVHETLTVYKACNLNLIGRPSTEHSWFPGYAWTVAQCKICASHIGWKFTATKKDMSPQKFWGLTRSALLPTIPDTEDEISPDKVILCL
Chain of CRBN-DDB1 (Q16531 whole entry partner): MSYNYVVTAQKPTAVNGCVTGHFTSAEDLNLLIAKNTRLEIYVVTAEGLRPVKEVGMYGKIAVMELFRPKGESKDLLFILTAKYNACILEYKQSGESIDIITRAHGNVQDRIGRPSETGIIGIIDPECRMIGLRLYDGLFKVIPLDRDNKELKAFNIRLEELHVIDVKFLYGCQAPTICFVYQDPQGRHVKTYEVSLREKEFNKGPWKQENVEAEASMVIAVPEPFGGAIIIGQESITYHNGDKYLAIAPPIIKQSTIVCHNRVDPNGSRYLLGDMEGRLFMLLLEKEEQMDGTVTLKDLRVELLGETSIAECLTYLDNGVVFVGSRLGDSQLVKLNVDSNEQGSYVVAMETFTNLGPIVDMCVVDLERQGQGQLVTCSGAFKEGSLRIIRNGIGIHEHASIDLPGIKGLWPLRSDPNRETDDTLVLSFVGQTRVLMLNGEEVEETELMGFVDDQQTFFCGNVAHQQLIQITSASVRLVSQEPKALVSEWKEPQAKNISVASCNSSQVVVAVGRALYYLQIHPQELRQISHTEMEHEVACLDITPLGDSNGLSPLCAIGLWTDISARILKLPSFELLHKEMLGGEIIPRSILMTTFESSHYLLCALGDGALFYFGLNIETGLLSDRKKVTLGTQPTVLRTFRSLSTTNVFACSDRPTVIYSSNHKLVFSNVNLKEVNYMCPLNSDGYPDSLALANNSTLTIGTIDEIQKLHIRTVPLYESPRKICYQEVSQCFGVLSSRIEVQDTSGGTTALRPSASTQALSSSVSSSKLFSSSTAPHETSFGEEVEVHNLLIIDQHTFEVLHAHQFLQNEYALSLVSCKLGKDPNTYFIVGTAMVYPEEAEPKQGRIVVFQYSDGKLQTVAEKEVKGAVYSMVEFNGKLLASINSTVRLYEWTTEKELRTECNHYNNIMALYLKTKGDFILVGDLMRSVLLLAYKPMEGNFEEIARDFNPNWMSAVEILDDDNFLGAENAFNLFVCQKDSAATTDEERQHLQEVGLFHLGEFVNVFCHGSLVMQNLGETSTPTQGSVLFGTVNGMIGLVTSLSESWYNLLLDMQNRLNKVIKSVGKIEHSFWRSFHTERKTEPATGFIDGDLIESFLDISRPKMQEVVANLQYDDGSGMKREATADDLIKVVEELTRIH

`COc1c(CNC(=O)OCC2CC3(CCC3)C2)ccc2c1C(=O)N(C1CCC(=O)NC1=O)C2` (stereo not drawn) [Compound 102, spiro[3.3]heptan-2-ylmethyl ((2-(2,6-dioxopiperidin-3-yl)-4-methoxy-3-oxoisoindolin-5-yl)methyl)carbamate] returned a Ki at CRBN-DDB1 not above 100 nM. This compound returned a Dmax at CDK2 of 10 to 50%.
For `O=C1CCC(N2Cc3ccc(CNC(=O)OCC4CC5(C4)CC4(CCC4)C5)cc3C2=O)C(=O)N1` (stereo not drawn) [Compound 127, dispiro[3.1.36.14]decan-2-ylmethyl((2-(2,6-dioxopiperidin-3-yl)-3-oxoisoindolin-5-yl)methyl)carbamate] the same measures were not above 100 nM and 50 to 80%.
As to `Nc1c(CNc2nnc(C3CC4(CCC4)C3)o2)ccc2c1C(=O)N(C1CCC(=O)NC1=O)C2` (stereo not drawn) [Compound 144, 3-(7-amino-1-oxo-6-(((5-(spiro[3.3]heptan-2-yl)-1,3,4-oxadiazol-2-yl)amino)methyl)isoindolin-2-yl)piperidine-2,6-dione], the Ki on CRBN-DDB1 fell in the range of 100 to 1000 nM. This compound gave a Dmax at CDK2 of 10 to 50%.
As to `CCC1(CCCOC(=O)NCc2ccc3c(c2)C(=O)N(C2CCC(=O)NC2=O)C3)CC1` (stereo not drawn) [Compound 101, 3-(1-ethylcyclopropyl)propyl ((2-(2,6-dioxopiperidin-3-yl)-3-oxoisoindolin-5-yl)methyl)carbamate], the Ki on CRBN-DDB1 was in the range of 100 to 1000 nM. The compound also returned a Dmax at CDK2 of 10 to 50%.
As to `CC1(COC(=O)NCc2ccc3c(c2)C(=O)N(C2CCC(=O)NC2=O)C3)CS(=O)(=O)C1` (stereo not drawn) [Compound 81, (3-methyl-1,1-dioxo-1lambda6-thietan-3-yl)methyl N-{[2-(2,6-dioxopiperidin-3-yl)-3-oxo-2,3-dihydro-1H-isoindol-5-yl]methyl}carbamate], the Ki on CRBN-DDB1 was not above 100 nM. The same compound had a Dmax on CDK2 of 10 to 50%.
As for `COCC(OC(=O)NCc1ccc2c(c1)C(=O)N(C1CCC(=O)NC1=O)C2)C1CC1` (stereo not drawn) [Compound 49, 1-cyclopropyl-2-methoxyethyl N-{[2-(2,6-dioxopiperidin-3-yl)-3-oxo-2,3-dihydro-1H-isoindol-5-yl]methyl}carbamate], the Ki on CRBN-DDB1 was 100 to 1000 nM. The Dmax at CDK2 fell in the range of 10 to 50%.
`O=C1CCC(N2Cc3c(cc(CNc4nnc(C5CC6(CCC6)C5)o4)cc3C(F)(F)F)C2=O)C(=O)N1` (stereo not drawn) [Compound 139, 3-(1-oxo-6-(((5-(spiro[3.3]heptan-2-yl)-1,3,4-oxadiazol-2-yl)amino)methyl)-4-(trifluoromethyl)isoindolin-2-yl)piperidine-2,6-dione] returned a Ki at CRBN-DDB1 of 100 to 1000 nM. In addition, the “CDK2 NanoBiT Dmax (%)” value on CDK2 (HEK293 clonal line with CRISPR KI HiBiT tag on CDK2, Endurazine live cell substrate) is “C (C represents a Dmax value of >50% and ≤80%)”.
`CC(NC(=O)OCC1CC2(CCC2)C1)c1ccc2c(c1)C(=O)N(C1CCC(=O)NC1=O)C2` (stereo not drawn) [Compound 114]: the Ki at CRBN-DDB1 fell in the range of 100 to 1000 nM. Besides, the Dmax at CDK2 lay within 10 to 50%.
For `O=C1CCC(N2Cc3cc(F)c(CNC(=O)OCC4CC5(CCC5)C4)cc3C2=O)C(=O)N1` (stereo not drawn) [Compound 123, spiro[3.3]heptan-2-ylmethyl ((2-(2,6-dioxopiperidin-3-yl)-6-fluoro-3-oxoisoindolin-5-yl)methyl)carbamate] the same measures were 100 to 1000 nM and 10 to 50%.
As for `CC1(C)COC1COC(=O)NCc1ccc2c(c1)C(=O)N(C1CCC(=O)NC1=O)C2` (stereo not drawn) [Compound 79, (3,3-dimethyloxetan-2-yl)methyl N-{[2-(2,6-dioxopiperidin-3-yl)-3-oxo-2,3-dihydro-1H-isoindol-5-yl]methyl}carbamate], the Ki at CRBN-DDB1 was in the range of 100 to 1000 nM. The compound further yielded a Dmax on CDK2 not above 10%.
For `CC(C)(C)OC(=O)N1CC(COC(=O)NCc2ccc3c(c2)C(=O)N(C2CCC(=O)NC2=O)C3)C1` (stereo not drawn) [Compound 45, tert-butyl 3-{[({[2-(2,6-dioxopiperidin-3-yl)-3-oxo-2,3-dihydro-1H-isoindol-5-yl]methyl}carbamoyl)oxy]methyl}azetidine-1-carboxylate] the same measures were 100 to 1000 nM and not above 10%.
For `O=C1CCC(N2Cc3ccc(CNC(=O)OCCC4CC5(CCC5)C4)cc3C2=O)C(=O)N1` (stereo not drawn) [Compound 124, 2-(spiro[3.3]heptan-2-yl)ethyl ((2-(2,6-dioxopiperidin-3-yl)-3-oxoisoindolin-5-yl)methyl)carbamate] the same measures were 100 to 1000 nM and 10 to 50%.
For `O=C1CCC(N2Cc3ccc(CNC(=O)OC(CC4CC4)C4CC5(CCC5)C4)cc3C2=O)C(=O)N1` (stereo not drawn) [Compound 110, 2-cyclopropyl-1-(spiro[3.3]heptan-2-yl)ethyl ((2-(2,6-dioxopiperidin-3-yl)-3-oxoisoindolin-5-yl)methyl)carbamate], in that order: 100 to 1000 nM and 10 to 50%.
With `CN(C)C(=O)N1CC(OC(=O)NCc2ccc3c(c2)C(=O)N(C2CCC(=O)NC2=O)C3)C1` (stereo not drawn) [Compound 112, 1-(dimethylcarbamoyl)azetidin-3-yl ((2-(2,6-dioxopiperidin-3-yl)-3-oxoisoindolin-5-yl)methyl)carbamate], the Ki at CRBN-DDB1 is 100 to 1000 nM. At CDK2, this compound registered a Dmax of 10 to 50%.
For `O=C1CCC(N2Cc3ccc(CNC(=O)OCC4CC5(CCCC5)C4)cc3C2=O)C(=O)N1` (stereo not drawn) [Compound 115, spiro[3.4]octan-2-ylmethyl ((2-(2,6-dioxopiperidin-3-yl)-3-oxoisoindolin-5-yl)methyl)carbamate], the Ki at CRBN-DDB1 was 100 to 1000 nM. Further, the Dmax on CDK2 fell in the range of 50 to 80%.
For `O=C1CCC(N2Cc3c(Cl)cc(CNc4nnc(C5CC6(CCC6)C5)o4)cc3C2=O)C(=O)N1` (stereo not drawn) [Compound 140, 3-(4-chloro-1-oxo-6-(((5-(spiro[3.3]heptan-2-yl)-1,3,4-oxadiazol-2-yl)amino)methyl)isoindolin-2-yl)piperidine-2,6-dione], in that order: 100 to 1000 nM and 50 to 80%.
The compound `O=C1CCC(N2C(=O)c3ccc(CNC(=O)OCC4CC5(CCC5)C4)cc3C2=O)C(=O)N1` (stereo not drawn) [Compound 117, spiro[3.3]heptan-2-ylmethyl ((2-(2,6-dioxopiperidin-3-yl)-1,3-dioxoisoindolin-5-yl)methyl)carbamate] came in with a Ki on CRBN-DDB1 of 100 to 1000 nM. Besides, the Dmax at CDK2 is more than 80%.
For `O=C1CCC(N2Cc3ccc(CNC(=O)OCC4CCC[C@H]4C(F)(F)F)cc3C2=O)C(=O)N1` (mixture of isomers) [Compound 73, rac-[(1R,2R)-2-(trifluoromethyl)cyclopentyl]methyl N-{[2-(2,6-dioxopiperidin-3-yl)-3-oxo-2,3-dihydro-1H-isoindol-5-yl]methyl}carbamate] the same measures were 100 to 1000 nM and not above 10%.
For `O=C1CCC(N2Cc3ccc(CNC(=O)OCCCC4CCC4)cc3C2=O)C(=O)N1` (stereo not drawn) [Compound 128, 3-cyclobutylpropyl ((2-(2,6-dioxopiperidin-3-yl)-3-oxoisoindolin-5-yl)methyl)carbamate] the same measures were 100 to 1000 nM and 10 to 50%.
At CRBN-DDB1, `O=C1CCC(N2Cc3c(F)cc(CNc4nnc(C5CC6(CCC6)C5)o4)cc3C2=O)C(=O)N1` (stereo not drawn) [Compound 142, 3-(4-fluoro-1-oxo-6-(((5-(spiro[3.3]heptan-2-yl)-1,3,4-oxadiazol-2-yl)amino)methyl)isoindolin-2-yl)piperidine-2,6-dione] registered a Ki of 100 to 1000 nM. The compound further returned a Dmax at CDK2 of 50 to 80%.
Compound `C[C@H](CC1CC1)OC(=O)NCc1ccc2c(c1)C(=O)N(C1CCC(=O)NC1=O)C2` (stereo partly drawn) [Compound 56, (2R)-1-cyclopropylpropan-2-yl N-{[2-(2,6-dioxopiperidin-3-yl)-3-oxo-2,3-dihydro-1H-isoindol-5-yl]methyl}carbamate] gave a Ki at CRBN-DDB1 of 100 to 1000 nM. On CDK2, this compound had a Dmax of 10 to 50%.
